# Experimental data reported in PubChem BioAssay (NCI).
#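 Test compounds were applied to cells in 96-well plates for 48 hours at 5 doses. At the GI50, growth is halved. At the TGI there is no net growth.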
# Tests used:
# Assay in all cases: growth of human tumour cells (NCI), 48 h
# SN12C renal = tested on: SN12C renal
# SK-OV-3 ovarian = tested on: SK-OV-3 ovarian
# HCT-15 colon = tested on: HCT-15 colon
# SW-620 colon = tested on: SW-620 colon
# HOP-62 NSCLC = tested on: HOP-62 NSCLC
# ACHN renal = tested on: ACHN renal
# IGROV1 ovarian = tested on: IGROV1 ovarian
# DU-145 prostate = tested on: DU-145 prostate
# UO-31 renal = tested on: UO-31 renal
# CCRF-CEM leukemia = tested on: CCRF-CEM leukemia
# OVCAR-8 ovarian = tested on: OVCAR-8 ovarian
# MALME-3M melanoma = tested on: MALME-3M melanoma
# COLO 205 colon = tested on: COLO 205 colon
# SK-MEL-2 melanoma = tested on: SK-MEL-2 melanoma
# HCC-2998 colon = tested on: HCC-2998 colon
# CAKI-1 renal = tested on: CAKI-1 renal
# T-47D breast = tested on: T-47D breast
# HT29 colon = tested on: HT29 colon
# M14 melanoma = tested on: M14 melanoma
# MDA-N = tested on: MDA-N
# RXF 393 renal = tested on: RXF 393 renal
# U251 CNS = tested on: U251 CNS
# SF-268 CNS = tested on: SF-268 CNS
# EKVX NSCLC = tested on: EKVX NSCLC
# SNB-75 CNS = tested on: SNB-75 CNS
# NCI-H226 lung = tested on: NCI-H226 lung
# A549 NSCLC = tested on: A549 NSCLC
# RPMI-8226 leukemia = tested on: RPMI-8226 leukemia
# HCT-116 colon = tested on: HCT-116 colon
# OVCAR-5 ovarian = tested on: OVCAR-5 ovarian
# NCI-H522 lung = tested on: NCI-H522 lung
# MCF7 breast = tested on: MCF7 breast
# HOP-92 NSCLC = tested on: HOP-92 NSCLC
# MDA-MB-231 breast = tested on: MDA-MB-231 breast
# SF-539 CNS = tested on: SF-539 CNS
# 786-0 renal = tested on: 786-0 renal
# NCI/ADR-RES ovarian = tested on: NCI/ADR-RES ovarian
# A498 renal = tested on: A498 renal
# UACC-62 melanoma = tested on: UACC-62 melanoma
# TK-10 renal = tested on: TK-10 renal
# SK-MEL-28 melanoma = tested on: SK-MEL-28 melanoma
# KM12 colon = tested on: KM12 colon
# SK-MEL-5 melanoma = tested on: SK-MEL-5 melanoma
# MOLT-4 leukemia = tested on: MOLT-4 leukemia
# PC-3 prostate = tested on: PC-3 prostate
# BT-549 breast = tested on: BT-549 breast
# MDA-MB-435 = tested on: MDA-MB-435
# NCI-H23 lung = tested on: NCI-H23 lung
# SF-295 CNS = tested on: SF-295 CNS
# K-562 leukemia = tested on: K-562 leukemia
# OVCAR-3 ovarian = tested on: OVCAR-3 ovarian
# OVCAR-4 ovarian = tested on: OVCAR-4 ovarian
# LOX IMVI melanoma = tested on: LOX IMVI melanoma
# HL-60(TB) leukemia = tested on: HL-60(TB) leukemia
# UACC-257 melanoma = tested on: UACC-257 melanoma
# SNB-19 CNS = tested on: SNB-19 CNS
# NCI-H460 lung = tested on: NCI-H460 lung
smiles,measurement,setting,value
Cc1cc(NCCCCCCCCCC[n+]2c(C)cc(N)c3ccccc32)c2ccccc2n1,TGI,SN12C renal,5.85 µM
same,TGI,SK-OV-3 ovarian,12.9 µM
same,TGI,HCT-15 colon,18.4 µM
same,TGI,SW-620 colon,21.2 µM
same,TGI,HOP-62 NSCLC,30.1 µM
same,TGI,ACHN renal,10.1 µM
same,TGI,IGROV1 ovarian,17.3 µM
same,TGI,DU-145 prostate,22.3 µM
same,TGI,UO-31 renal,26.4 µM
same,TGI,CCRF-CEM leukemia,7.43 µM
same,TGI,OVCAR-8 ovarian,15.8 µM
same,TGI,MALME-3M melanoma,18.5 µM
same,TGI,COLO 205 colon,1.22 µM
same,TGI,SK-MEL-2 melanoma,7.29 µM
same,TGI,HCC-2998 colon,6.01 µM
same,TGI,CAKI-1 renal,30.7 µM
same,TGI,T-47D breast,12.3 µM
same,TGI,HT29 colon,> 100 µM
same,TGI,M14 melanoma,12 µM
same,TGI,MDA-N,3.61 µM
same,TGI,RXF 393 renal,> 100 µM
same,TGI,U251 CNS,4.3 µM
same,TGI,SF-268 CNS,> 39 µM
same,TGI,EKVX NSCLC,> 100 µM
same,TGI,SNB-75 CNS,7.71 µM
same,TGI,NCI-H226 lung,> 100 µM
same,TGI,A549 NSCLC,61.8 µM
same,TGI,RPMI-8226 leukemia,2.28 µM
same,TGI,HCT-116 colon,11.7 µM
same,TGI,OVCAR-5 ovarian,24.7 µM
same,TGI,NCI-H522 lung,> 100 µM
same,TGI,MCF7 breast,> 100 µM
same,TGI,HOP-92 NSCLC,7.62 µM
same,TGI,MDA-MB-231 breast,5.61 µM
same,TGI,SF-539 CNS,> 100 µM
same,TGI,786-0 renal,15.1 µM
same,TGI,NCI/ADR-RES ovarian,74.8 µM
same,TGI,A498 renal,15.4 µM
same,TGI,UACC-62 melanoma,4.17 µM
same,TGI,TK-10 renal,18.3 µM
same,TGI,SK-MEL-28 melanoma,3.82 µM
same,TGI,KM12 colon,2400 nM
same,TGI,SK-MEL-5 melanoma,0.695 µM
same,TGI,MOLT-4 leukemia,5.23 µM
same,TGI,PC-3 prostate,13.7 µM
same,TGI,BT-549 breast,> 100 µM
same,TGI,MDA-MB-435,5.86 µM
same,TGI,NCI-H23 lung,6.54 µM
same,TGI,SF-295 CNS,13.6 µM
same,TGI,K-562 leukemia,2.36 µM
same,TGI,OVCAR-3 ovarian,65.9 µM
same,TGI,OVCAR-4 ovarian,> 100 µM
CCCCCCCCCCCCC(O)C1CCC(C(O)CCCCCCC(O)CCCCCCCC2=CC(C)OC2=O)O1 (centres undefined),TGI,SN12C renal,83.1 µM
same,TGI,HCT-15 colon,> 100 µM
same,GI50,SW-620 colon,45.8 µM
same,TGI,SW-620 colon,> 100 µM
same,TGI,HOP-62 NSCLC,> 100 µM
same,GI50,ACHN renal,18.9 µM
same,TGI,ACHN renal,> 100 µM
same,TGI,IGROV1 ovarian,> 100 µM
same,GI50,UO-31 renal,17 µM
same,TGI,UO-31 renal,35 µM
same,GI50,CCRF-CEM leukemia,15.4 µM
same,TGI,CCRF-CEM leukemia,79.9 µM
same,TGI,OVCAR-8 ovarian,> 100 µM
same,TGI,LOX IMVI melanoma,39.8 µM
same,TGI,MALME-3M melanoma,56.7 µM
same,TGI,COLO 205 colon,44.2 µM
same,TGI,SK-MEL-2 melanoma,61.1 µM
same,TGI,HCC-2998 colon,82.5 µM
same,TGI,CAKI-1 renal,71.9 µM
same,GI50,T-47D breast,14.8 µM
same,TGI,T-47D breast,> 100 µM
same,TGI,M14 melanoma,45.7 µM
same,TGI,MDA-N,71.7 µM
same,TGI,RXF 393 renal,83 µM
same,TGI,U251 CNS,> 100 µM
same,GI50,SF-268 CNS,41.2 µM
same,TGI,SF-268 CNS,> 100 µM
same,GI50,EKVX NSCLC,23 µM
same,TGI,EKVX NSCLC,> 100 µM
same,GI50,HL-60(TB) leukemia,852 nM
same,TGI,HL-60(TB) leukemia,62.8 µM
same,GI50,SNB-75 CNS,74.5 µM
same,TGI,SNB-75 CNS,> 100 µM
same,TGI,NCI-H226 lung,> 100 µM
same,GI50,A549 NSCLC,21.7 µM
same,TGI,A549 NSCLC,> 100 µM
same,GI50,RPMI-8226 leukemia,2050 nM
same,TGI,RPMI-8226 leukemia,22.3 µM
same,TGI,HCT-116 colon,> 100 µM
same,GI50,UACC-257 melanoma,12.1 µM
same,TGI,UACC-257 melanoma,85.9 µM
same,GI50,OVCAR-5 ovarian,> 100 µM
same,TGI,OVCAR-5 ovarian,> 100 µM
same,TGI,NCI-H522 lung,56.9 µM
same,GI50,MCF7 breast,23.6 µM
same,TGI,MCF7 breast,> 100 µM
same,TGI,HOP-92 NSCLC,72.1 µM
same,TGI,MDA-MB-231 breast,> 100 µM
same,TGI,786-0 renal,> 100 µM
same,GI50,NCI/ADR-RES ovarian,31.5 µM
same,TGI,NCI/ADR-RES ovarian,> 100 µM
same,TGI,A498 renal,> 100 µM
same,TGI,TK-10 renal,> 100 µM
same,TGI,SNB-19 CNS,> 100 µM
same,TGI,SK-MEL-28 melanoma,> 100 µM
same,TGI,KM12 colon,> 100000 nM
same,TGI,SK-MEL-5 melanoma,22.2 µM
same,GI50,MOLT-4 leukemia,3.17 µM
same,TGI,MOLT-4 leukemia,33 µM
same,TGI,PC-3 prostate,90.7 µM
same,GI50,BT-549 breast,34.6 µM
same,TGI,BT-549 breast,> 100 µM
same,GI50,MDA-MB-435,27 µM
same,TGI,MDA-MB-435,> 100 µM
same,GI50,NCI-H23 lung,13.3 µM
same,TGI,NCI-H23 lung,> 100 µM
same,TGI,NCI-H460 lung,> 100 µM
same,GI50,SF-295 CNS,17.5 µM
same,TGI,SF-295 CNS,> 100 µM
same,TGI,K-562 leukemia,40.6 µM
same,TGI,OVCAR-3 ovarian,45.7 µM
same,TGI,OVCAR-4 ovarian,> 100 µM
